# Assays:
# [1] = target: T1, PTPN2 (HiBIT-PTPN2 in 293T.109 cells) (Homo sapiens, UniProt P17706); experiment: HiBiT Degradation 293T.109 PTPN2 (Nano-Glo HiBiT Lytic Assay); type: cell-based; conditions: 24.0 hours
# T1 construct: expressed in transfected cells; host or cells: 293T.109 (293T WT from ATCC)
# T1 sequence (P17706 1-415): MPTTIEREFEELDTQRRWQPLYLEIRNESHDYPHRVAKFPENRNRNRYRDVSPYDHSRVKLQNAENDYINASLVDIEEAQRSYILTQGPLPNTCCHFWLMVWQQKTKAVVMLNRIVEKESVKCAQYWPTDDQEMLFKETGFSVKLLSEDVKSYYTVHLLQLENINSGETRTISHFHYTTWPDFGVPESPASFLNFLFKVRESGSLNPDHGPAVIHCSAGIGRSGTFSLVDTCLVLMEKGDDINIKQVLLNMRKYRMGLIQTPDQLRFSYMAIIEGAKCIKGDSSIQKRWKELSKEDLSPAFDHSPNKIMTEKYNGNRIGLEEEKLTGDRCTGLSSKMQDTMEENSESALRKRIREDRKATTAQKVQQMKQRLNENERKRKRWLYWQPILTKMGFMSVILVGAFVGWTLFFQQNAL
# Method in brief: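 293T.109 cells with ectopic N-terminal HiBiT-tagged PTPN2 (5000/well) exposed to compounds for 24 h at 37 °C, 5% CO2; 11-point half-log titration from 10 μM top, duplicates. Remaining HiBiT-PTPN2 read as luminescence with Nano-Glo HiBiT lytic reagent, normalised to untreated cells (0%) and reagent-free wells.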
# PTPN2 (B16F10.4 cells) = target: T2, PTPN2 (B16F10.4 cells) (Mus musculus, UniProt Q06180); experiment: HiBiT Degradation B16F10.4 PTPN2; type: cell-based; conditions: 24.0 hours
# T2 construct: HiBiT; host or cells: B16F10.4
# T2 sequence (Q06180 1-406): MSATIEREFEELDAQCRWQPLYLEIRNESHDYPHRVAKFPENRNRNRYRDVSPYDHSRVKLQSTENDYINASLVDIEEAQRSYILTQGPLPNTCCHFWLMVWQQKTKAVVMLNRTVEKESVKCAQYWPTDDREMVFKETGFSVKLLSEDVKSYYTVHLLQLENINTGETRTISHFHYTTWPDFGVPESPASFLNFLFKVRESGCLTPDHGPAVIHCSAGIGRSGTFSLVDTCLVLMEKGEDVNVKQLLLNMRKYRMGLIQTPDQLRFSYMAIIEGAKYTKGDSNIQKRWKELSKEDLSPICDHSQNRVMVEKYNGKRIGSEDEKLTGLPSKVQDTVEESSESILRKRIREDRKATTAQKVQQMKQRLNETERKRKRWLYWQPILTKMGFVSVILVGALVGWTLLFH
SMILES,DC50 [1] [nM],DC50 (PTPN2 (B16F10.4 cells)) [nM]
"O=C(O)COc1c(C(=O)O)sc(-c2cccc(NC3CCN(S(=O)(=O)Cc4cccc(NC(=O)CNc5ccc6c(c5)CN(C5CCC(=O)NC5=O)C6=O)c4)CC3)c2)c1Cl (centres unmarked) [Example 36, 3-(carboxymethoxy)-4-chloro-5-[3-[[1-[[3-[[2-[[2-(2,6-dioxo-3-piperidyl)-1-oxo-isoindolin-5-yl]amino]acetyl]amino]phenyl]methylsulfonyl]-4-piperidyl]amino]phenyl]thiophene-2-carboxylic acid]",200 to 1000,200 to 1000
"CC1(C)C[C@@H](Nc2cccc(-c3sc(C(=O)O)c(OCC(=O)O)c3Cl)c2)CCN1S(=O)(=O)Cc1cccc(NC(=O)N2CCC[C@@H](c3ccc4c5c(cccc35)N(C3CCC(=O)NC3=O)C4=O)CC2)c1 (stereo partly drawn) [Example 224, 3-(carboxymethoxy)-4-chloro-5-(3-(((4S)-1-((3-((4R)-4-(1-(2,6-dioxopiperidin-3-yl)-2-oxo-1,2-dihydrobenzo[cd]indol-5-yl)azepane-1-carboxamido)benzyl)sulfonyl)-2,2-dimethylpiperidin-4-yl)amino)phenyl)thiophene-2-carboxylic acid]",50 to 200,50 to 200
"Cn1c(=O)n(C2CCC(=O)NC2=O)c2ccc(C3CCN(C(=O)Nc4cccc(CS(=O)(=O)N5CCC(Nc6cc(-c7sc(C(=O)O)c(OCC(=O)O)c7Cl)ccc6F)CC5)c4)CC3)cc21 (centres unmarked) [Example 121, 3-(carboxymethoxy)-4-chloro-5-[3-[[1-[[3-[[4-[1-(2,6-dioxo-3-piperidyl)-3-methyl-2-oxo-benzimidazol-5-yl]piperidine-1-carbonyl]amino]phenyl]methylsulfonyl]-4-piperidyl]amino]-4-fluoro-phenyl]thiophene-2-carboxylic acid]",200 to 1000,50 to 200
"O=C(O)COc1c(C(=O)O)sc(-c2cccc(NC3CCN(S(=O)(=O)Cc4cccc(NC(=O)CCCCCCNC(=O)CNc5ccc6c(c5)CN(C5CCC(=O)NC5=O)C6=O)c4)CC3)c2)c1Cl (centres unmarked) [Example 25, 3-(carboxymethoxy)-4-chloro-5-[3-[[1-[[3-[7-[[2-[[2-(2,6-dioxo-3-piperidyl)-1-oxo-isoindolin-5-yl]amino]acetyl]amino]heptanoylamino]phenyl]methylsulfonyl]-4-piperidyl]amino]phenyl]thiophene-2-carboxylic acid]",200 to 1000,200 to 1000

# Now from value to compound:
DC50 [1] [nM],DC50 (PTPN2 (B16F10.4 cells)) [nM],SMILES
< 50,≥ 1000,CC1(C)C[C@@H](Nc2cccc(-c3sc(C(=O)O)c(OCC(=O)O)c3Cl)c2)CCN1S(=O)(=O)Cc1cccc(NC(=O)C2CN(C(=O)COc3cccc4c3CN(C3CCC(=O)NC3=O)C4=O)C2)c1 (some centres unmarked) [Example 74]
< 50,< 50,"Cn1c(=O)n(C2CCC(=O)NC2=O)c2ccc(C3CCN(C(=O)Nc4cccc(CS(=O)(=O)N5CC[C@H](Nc6cccc(-c7sc(C(=O)O)c(OCC(=O)O)c7Cl)c6)CC5(C)C)c4)CC3(F)F)cc21 (stereo partly drawn) [Example 147, 3-(carboxymethoxy)-4-chloro-5-[3-[[(4S)-1-[[3-[[4-[1-(2,6-dioxo-3-piperidyl)-3-methyl-2-oxo-benzimidazol-5-yl]-3,3-difluoro-piperidine-1-carbonyl]amino]phenyl]methylsulfonyl]-2,2-dimethyl-4-piperidyl]amino]phenyl]thiophene-2-carboxylic acid]"
200 to 1000,200 to 1000,"CC1(C)C[C@@H](Nc2cccc(-c3sc(C(=O)O)c(OCC(=O)O)c3Cl)c2)CCN1S(=O)(=O)Cc1cccc(NC(=O)CNc2ccc3c(c2)CN(C2CCC(=O)NC2=O)C3=O)c1 (stereo partly drawn) [Example 37, 3-(carboxymethoxy)-4-chloro-5-[3-[[(4S)-1-[[3-[[2-[[2-(2,6-dioxo-3-piperidyl)-1-oxo-isoindolin-5-yl]amino]acetyl]amino]phenyl]methylsulfonyl]-2,2-dimethyl-4-piperidyl]amino]phenyl]thiophene-2-carboxylic acid]"
